This passage reports IC50 and solubility results from patent US20220380314A1, “SUBSTITUTED, SATURATED AND UNSATURATED N-HETEROCYCLIC CARBOXAMIDES AND RELATED COMPOUNDS FOR THEIR USE IN THE TREATMENT OF MEDICAL DISORDERS” (Bial - R&D Investments, S.A., priority 2019, published 2022).

The target of one data set is T1, acid ceramidase (hACR) (Homo sapiens, UniProt Q13510).
T1 construct: expressed in transfected cells; cell lysate used
T1 sequence (Q13510 143-395 limits assumed): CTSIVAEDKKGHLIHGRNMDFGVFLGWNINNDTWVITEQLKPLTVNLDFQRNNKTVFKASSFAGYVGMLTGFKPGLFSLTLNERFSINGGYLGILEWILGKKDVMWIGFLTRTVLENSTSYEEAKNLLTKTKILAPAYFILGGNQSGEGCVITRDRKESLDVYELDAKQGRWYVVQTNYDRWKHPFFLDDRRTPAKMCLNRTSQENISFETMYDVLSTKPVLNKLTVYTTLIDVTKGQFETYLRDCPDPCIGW
T1 sequence (Q13510 22-142 limits assumed): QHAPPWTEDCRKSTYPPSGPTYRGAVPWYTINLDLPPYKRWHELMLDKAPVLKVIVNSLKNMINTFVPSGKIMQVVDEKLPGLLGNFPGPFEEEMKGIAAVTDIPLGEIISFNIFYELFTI
In words: Acid ceramidase inhibition, biochemical fluorescent assay with cell lysates overexpressing acid ceramidase, substrate Rbm14-12. An outline of the steps:
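Enzyme source was lysate (10 µg protein) from cells overexpressing acid ceramidase, preincubated 1 hr at RT with compound dose series in 25 mM NaAc, 100 mM NaCl, pH 4.5. Rbm14-12 (6.3 μM final) reacted 1 hr at RT; stop buffer (methanol, NaIO4, glycine, pH 10.6) 1 hr, fluorescence ex360/em446; IC50 from four-parameter fit.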

Data set [1] in a line: Compound solubility in water. The data set is classed as physicochemical.
Setting [2] is: cell lysates overexpressing acid ceramidase, 1 hr preincubation at RT, pH 4.5, substrate Rbm14-12 6.3 μM, read-out: hACR IC50.

≈ marks a conversion by molar mass, not a printed value. Where two headings read alike, the source gives them in different places. Bounds are passed on as bounds.

As for `CC1(C)COc2ccccc2N1C(=O)NCCc1ccccc1` [Example 16, 3,3-Dimethyl-N-phenethyl-2H-benzo[b][1,4]oxazine-4(3H)-carboxamide], the IC50 on acid ceramidase (hACR) (setting [2]) was more than 1000 nM. Also, the solubility in data set [1] was 3.1 µM (≈ 0.962 µg/mL).
In the same order, the values of `CCCCCNC(=O)N1C(c2ccc(OC)cc2)COCC1(C)C` (centres unmarked) [Example 156, 5-(4-Methoxyphenyl)-3,3-dimethyl-N-pentylmorpholine-4-carboxamide] are less than 200 nM and 91 µM (≈ 30.4 µg/mL).
For `O=C(NCCCc1ccccc1)N1CCCC12CCCC2` [Example 57, N-(3-Phenylpropyl)-1-azaspiro[4.4]nonane-1-carboxamide] the same measures were more than 1000 nM and 19.4 µM (≈ 5.56 µg/mL).
Consider `CN1CCN(c2ccc3c(c2)CCC(C)(C)N3C(=O)NCCc2ccccc2)CC1` [Example 30, 2,2-Dimethyl-6-(4-methylpiperazin-1-yl)-N-phenethyl-3,4-dihydroquinoline-1(2H)-carboxamide], for which the IC50 on acid ceramidase (hACR) (setting [2]) lay within 200 to 1000 nM. Moreover, in data set [1], the solubility worked out at 36.4 µM (≈ 14.8 µg/mL).
For `Cn1ccnc1-c1ccc2c(c1)N(C(=O)NCCc1ccccc1)C(C)(C)CC2` [Example 12, 2,2-Dimethyl-7-(1-methyl-1H-imidazol-2-yl)-N-phenethyl-3,4-dihydroquinoline-1(2H)-carboxamide] the same measures were more than 1000 nM and 26.6 µM (≈ 10.3 µg/mL).
In the same order, the values of `CN1CC(c2cccc3c2CCC(C)(C)N3C(=O)NCc2ccccc2)C1` [Example 66, N-Benzyl-2,2-dimethyl-5-(1-methylazetidin-3-yl)-3,4-dihydroquinoline-1(2H)-carboxamide] are 200 to 1000 nM and 38.5 µM (≈ 14 µg/mL).
For `CC1(C)CCc2ccc(N3CCOCC3)cc2N1C(=O)NCCc1ccccc1` [Example 10, 2,2-Dimethyl-7-morpholino-N-phenethyl-3,4-dihydroquinoline-1(2H)-carboxamide] the same measures were more than 1000 nM and 6.7 µM (≈ 2.64 µg/mL).
With `O=C(NCCc1ccccc1)N1CCCCC12CCCC2` [Example 45, N-Phenethyl-6-azaspiro[4.5]decane-6-carboxamide], the IC50 on acid ceramidase (hACR) (setting [2]) was in the range of 200 to 1000 nM. Besides, the concentration in solution in data set [1] (solubility) came to 6 µM (≈ 1.72 µg/mL).
For `CN(C(=O)NCCCc1ccccc1)C1CN2CCC1CC2` (centres unmarked) [Example 64, 1-Methyl-3-(3-phenylpropyl)-1-(quinuclidin-3-yl)urea] the same measures were more than 1000 nM and 35.4 µM (≈ 10.7 µg/mL).
In the same order, the values of `CC1(C)CCc2c(C#N)cccc2N1C(=O)NCCc1ccccc1` [Example 47, 5-cyano-2,2-dimethyl-N-phenethyl-3,4-dihydroquinoline-1(2H)-carboxamide] are 200 to 1000 nM and 1.7 µM (≈ 0.567 µg/mL).
Consider `CC1(C)CCc2ccccc2N1C(=O)NCCc1ccccc1` [Example 6, 2,2-Dimethyl-N-phenethyl-3,4-dihydroquinoline-1(2H)-carboxamide], for which the IC50 at acid ceramidase (hACR) (setting [2]) was 200 to 1000 nM. Moreover, the concentration in solution in data set [1] (solubility) came to 3.2 µM (≈ 0.987 µg/mL).
For `CN1CCN(c2cccc3c2CCC(C)(C)N3C(=O)NCCc2ccccc2)CC1` [Example 29, 2,2-Dimethyl-5-(4-methylpiperazin-1-yl)-N-phenethyl-3,4-dihydroquinoline-1(2H)-carboxamide] the same measures were more than 1000 nM and 31.7 µM (≈ 12.9 µg/mL).
In the same order, the values of `COc1ccc(C2COCC(C)(C)N2C(=O)NCC2CC2)cc1` (centres unmarked) [Example 144, N-(Cyclopropylmethyl)-5-(4-methoxyphenyl)-3,3-dimethylmorpholine-4-carboxamide] are less than 200 nM and 97.8 µM (≈ 31.1 µg/mL).
For the molecule `CC1(C)CCCCN1C(=O)NCCc1ccccc1` [Example 25, 2,2-Dimethyl-N-phenethylpiperidine-1-carboxamide], at acid ceramidase (hACR) (setting [2]), the IC50 is 200 to 1000 nM. In addition, the solubility in data set [1] turned out to be 23.2 µM (≈ 6.04 µg/mL).
As for `COc1ccc(C2COCC(C)(C)N2C(=O)NCCF)cc1` (centres unmarked) [Example 154, N-(2-Fluoroethyl)-5-(4-methoxyphenyl)-3,3-dimethylmorpholine-4-carboxamide], the IC50 on acid ceramidase (hACR) (setting [2]) is 200 to 1000 nM. This molecule also gave a solubility in data set [1] of 92.9 µM (≈ 28.8 µg/mL).
For `COc1cccc2c1N(C(=O)NCCc1ccccc1)C(C)(C)CC2` [Example 68, 8-Methoxy-2,2-dimethyl-N-phenethyl-3,4-dihydroquinoline-1(2H)-carboxamide] the same measures were less than 200 nM and 8.2 µM (≈ 2.78 µg/mL).
For the molecule `COc1ccc(C2COCC(C)(C)N2C(=O)NCCOCC2CC2)cc1` (centres unmarked) [Example 157, N-[2-(Cyclopropylmethoxy)ethyl]-5-(4-methoxyphenyl)-3,3-dimethylmorpholine-4-carboxamide], the IC50 on acid ceramidase (hACR) (setting [2]) is less than 200 nM. The same molecule registered a solubility in data set [1] of more than 100 µM.
Turning to `CN1CC(N2CC(c3ccc4c(c3)N(C(=O)NCCc3ccccc3)C(C)(C)CC4)C2)C1` [Example 69, 2,2-Dimethyl-7-(1′-methyl-[1,3′-biazetidin]-3-yl)-N-phenethyl-3,4-dihydroquinoline-1(2H)-carboxamide], the IC50 on acid ceramidase (hACR) (setting [2]) was more than 1000 nM. In data set [1], this molecule came in with a solubility of 35.5 µM (≈ 15.4 µg/mL).
For `CC1(C)CCc2c(N3CCOCC3)cccc2N1C(=O)NCCc1ccccc1` [Example 11, 2,2-Dimethyl-5-morpholino-N-phenethyl-3,4-dihydroquinoline-1(2H)-carboxamide], at acid ceramidase (hACR) (setting [2]), the IC50 was 200 to 1000 nM. Moreover, the solubility in data set [1] was determined as 8.1 µM (≈ 3.19 µg/mL).
As for `CC1(C)CC2(CCCCO2)CCN1C(=O)NCCCCC1CC1` (centres unmarked) [Example 43, N-(4-Cyclopropylbutyl)-8,8-dimethyl-1-oxa-9-azaspiro[5.5]undecane-9-carboxamide], the half-inhibitory concentration (IC50) at acid ceramidase (hACR) (setting [2]) lay within 200 to 1000 nM. The same molecule registered a solubility in data set [1] of 16.5 µM (≈ 5.32 µg/mL).
In the same order, the values of `CC1(C)CC(F)(F)CCN1C(=O)NCCCc1ccccc1` [Example 61, 4,4-Difluoro-2,2-dimethyl-N-(3-phenylpropyl)piperidine-1-carboxamide] are less than 200 nM and 25.7 µM (≈ 7.98 µg/mL).
Regarding `O=C(NCCCc1ccccc1)N1CCOCC12CCCC2` [Example 60, N-(3-Phenylpropyl)-9-oxa-6-azaspiro[4.5]decane-6-carboxamide], the IC50 on acid ceramidase (hACR) (setting [2]) was more than 1000 nM. This molecule also registered a solubility in data set [1] of 25.2 µM (≈ 7.62 µg/mL).
In the same order, the values of `CC(=O)N1CC(c2ccc3c(c2)N(C(=O)NCCc2ccccc2)C(C)(C)CC3)C1` [Example 70, 7-(1-Acetylazetidin-3-yl)-2,2-dimethyl-N-phenethyl-3,4-dihydroquinoline-1(2H)-carboxamide] are 200 to 1000 nM and 15.6 µM (≈ 6.33 µg/mL).
For `CN1CCC(c2ccc3c(c2)CC(C)(C)N(C(=O)NCCc2ccccc2)C3)CC1` [Example 21, 3,3-Dimethyl-6-(1-methylpiperidin-4-yl)-N-phenethyl-3,4-dihydroisoquinoline-2(1H)-carboxamide] the same measures were more than 1000 nM and 34.2 µM (≈ 13.9 µg/mL).
`CC1(C)CC(c2ccccc2)CCN1C(=O)NCCCCc1ccccc1` (centres unmarked) [Example 74, 2,2-Dimethyl-4-phenyl-N-(4-phenylbutyl)piperidine-1-carboxamide]: on acid ceramidase (hACR) (setting [2]), the half-maximal inhibitory concentration (IC50) was less than 200 nM. Besides, the concentration in solution in data set [1] (solubility) was 0.2 µM (≈ 0.0729 µg/mL).
For the molecule `CCCCNC(=O)N1CCN(C2CCCN(C)C2)CC1(C)C` (centres unmarked) [Example 38], the IC50 on acid ceramidase (hACR) (setting [2]) is more than 1000 nM. In data set [1], this molecule came in with a solubility of 35.8 µM (≈ 11.1 µg/mL).
Consider `CC1(C)CC(F)=CCN1C(=O)NCCCC1(C(F)(F)F)CC1` [Example 73, 4-fluoro-2,2-Dimethyl-N-(3-(1-(trifluoromethyl)cyclopropyl)propyl)-3,6-dihydropyridine-1(2H)-carboxamide], for which the concentration for half-maximal inhibition (IC50) on acid ceramidase (hACR) (setting [2]) was more than 1000 nM. For the same molecule, the solubility in data set [1] was 4.3 µM (≈ 1.39 µg/mL).
In the same order, the values of `CC1(C)CC(N2CCC(F)(F)CC2)CCN1C(=O)NCCCCc1ccccc1` (centres unmarked) [Example 86, 4-(4,4-Difluoro-1-piperidyl)-2,2-dimethyl-N-(4-phenylbutyl)piperidine-1-carboxamide] are less than 200 nM and 31 µM (≈ 12.6 µg/mL).
For the molecule `CC1(C)CC(c2ccccn2)CCN1C(=O)NCCCCc1ccccc1` (centres unmarked) [Example 79, 2,2-Dimethyl-N-(4-phenylbutyl)-4-(2-pyridyl)piperidine-1-carboxamide], the IC50 at acid ceramidase (hACR) (setting [2]) was more than 1000 nM. Moreover, the solubility in data set [1] is 6.4 µM (≈ 2.34 µg/mL).
For `CN1CCC(c2ccc3c(c2)N(C(=O)NCCc2ccccc2)CCC3)CC1` [Example 3, 7-(1-Methylpiperidin-4-yl)-N-phenethyl-3,4-dihydroquinoline-1(2H)-carboxamide] the same measures were more than 1000 nM and 38.7 µM (≈ 14.6 µg/mL).
Turning to `CN1CC(C)(C)N(C(=O)NCCc2ccccc2)c2ccccc21` [Example 7, 2,2,4-Trimethyl-N-phenethyl-3,4-dihydroquinoxaline-1(2H)-carboxamide], the IC50 at acid ceramidase (hACR) (setting [2]) was 200 to 1000 nM. The molecule further registered a solubility in data set [1] of 6.7 µM (≈ 2.17 µg/mL).
As for `CC1(C)CCc2c(C3COC3)cccc2N1C(=O)NCCc1ccccc1` [Example 51], the IC50 at acid ceramidase (hACR) (setting [2]) is 200 to 1000 nM. In data set [1], this molecule came in with a solubility of 0.9 µM (≈ 0.328 µg/mL).
In turn, `COc1ccc(C2COCC(C)(C)N2C(=O)NCC2CCOCC2)cc1` (centres unmarked) [Example 145, 5-(4-Methoxyphenyl)-3,3-dimethyl-N-(tetrahydropyran-4-ylmethyl)morpholine-4-carboxamide] displayed an IC50 on acid ceramidase (hACR) of 200 to 1000 nM. This molecule also showed a solubility in data set [1] of 91.3 µM (≈ 33.1 µg/mL).
On to `CC1(C)CC(F)(F)CCN1C(=O)NCCCC1(C(F)(F)F)CC1` [Example 72, 4,4-Difluoro-2,2-dimethyl-N-(3-(1-(trifluoromethyl)cyclopropyl)propyl)piperidine-1-carboxamide], for which the IC50 on acid ceramidase (hACR) (setting [2]) was 200 to 1000 nM. The molecule also had a solubility in data set [1] of 21.4 µM (≈ 7.33 µg/mL).
